Assay results: US20250352679A1, “IN-SITU STE[…] VAPOR PHASE DEPOSITION” (Applied Materials, Inc., priority 2024, published 2025)

Test system: bioburden of powdered lactose
Test: Bioburden testing (US Pharmacopeia 61, colony count) of lactose powder after ozone sterilization in the reactor chamber
Assay type: cell-based
Conditions: 50 g lactose powder, 5 hrs, 35° C., 10 rpm, 0 ppm control 1800 CFU/ml
Description: (§1) Briefly, 50 grams of lactose powder was loaded into the reactor chamber. The chamber was evacuated to reach a pressure of 0.008 Torr and then 0.01 Torr. Then the chamber was filled with ozone at 25 sccm to 2 ppm, 10 ppm or 20 ppm. The ozone was kept in the chamber for 5 hrs. The reaction was held at 35° C. and the reactor chamber was rotated at 10 rpm. At the end of the 5 hour incubation time, the chamber was evacuated to reach a pressure of 0.01 Torr and purged with nitrogen. The lactose was then tested using US Pharmacopeia 61 testing. Briefly, the samples were incubated in petri-dishes and counted for colony forming units (cfu).
as §1, with “ppm. Water vapor was also added at an ozone/water ratio of 1:10.” for “ppm.”, “test” for “tested”, “testing.” for “testing. Briefly, the samples were incubated in petri-dishes and counted for colony forming units (cfu).”

O=[O+][O-] [Dry ozone, ozone]
Bioburden (ozone concentration 2 ppm): 500 CFU/ml
Bioburden (ozone concentration 10 ppm): 50 CFU/ml
Bioburden (ozone concentration 20 ppm): <1 CFU/ml
